Experimental data reported in patent US20240140991A1, “ANTIBIOTIC NATURAL PRODUCT ANALOGUES” (THE QUEEN'S UNIVERSITY OF BELFAST, priority 2021, published 2024).
Values after ≈ are worked out from the molar mass of the structure shown. Positions of bridges follow the written chain, without caps; N, C: chain ends. Non-standard residues stand in square brackets, D forms with d. Residues, ends and D or L forms follow the SMILES beside them. ξ: configuration not given here. *: point of attachment. Octanoyl(7-Me) = CC(C)CCCCCC(=O)*; Hexanoyl(4ξ-Me) = CCC(C)CCC(=O)*; dOrn = NCCC[C@@H](N)C(=O)O; Orn = NCCC[C@H](N)C(=O)O; Dap = NC[C@H](N)C(=O)O

The compounds below were run on Escherichia coli ATCC 25922. Details: ATCC 25922.
Type: cell-based
Protocol: Minimum inhibitory concentration (MIC) was determined by broth microdilution according to CLSI guidelines. Blood agar plates were inoculated with glycerol stocks of Escherichia coli ATCC 25922, E. coli ATCC 25922 MCR-1, E. coli MCR-1 (clinical isolate from Utrecht Medical Center, NL), E. coli EQAS MCR-2 (clinical isolate from Wageningen University and Research, NL), Kiebsielia pneumoniae ATCC 11228, K. pneumoniae ATCC 13883, K. pneumonia 2048 (clinical isolate from Vrije Universiteit Amsterdam Medical Center, NL), K. pneumonia JS-123 (clinical isolate from Utrecht Medical Center, NL), Acinetobacter baumannii ATCC 17961, A. baumannil ATCC 17978, A. baumannii 2018-006 (clinical isolate from Rijksinstituut voor Volksgezondheid en Milieu, NL), A. baumannii MDR (clinical isolate from Vrije Universiteit Amsterdam Medical Center, NL), Pseudomonas aeruginosa ATCC 27853, P. aeruginosa PAO1, P. aeruginosa NRZ-03961 (Reference strain from Das Nationale Referenzzentrum für gramnegative Krankenhauserreger, DE), P. aeruginosa M-120 (clinical isolate from Leiden University Medical Center, NL) and Staphylococcus aureus USA300 (clinical isolate from Texas Children's Hospitalm, USA). E. coli 25922 MCR1 was grown on LB agar supplemented with kanamycin. The inoculated agar plates were then incubated for 16 hours at 37° C. Individually grown colonies were subsequently used to inoculate 3 mL aliquots of TSB that were then incubated at 37° C. with shaking at 220 rpm. In parallel, the compounds to be assessed were serially diluted with Mueller-Hinton broth (MHB) in polypropylene 96-well plates (50 μL in each well). Once the OD600 of the bacterial suspensions reached 0.5, the bacteria were diluted with MHB (final concentration 2×10^5 CFU mL^−1) and added to the microplates containing the test compounds (50 μL to each well, final volume: 100 μL). The well-plates were sealed with an adhesive membrane and after 16 hours of incubation at 37° C. with shaking at 220 rpm the wells were visually inspected for bacterial growth. MIC values were defined as the lowest concentration of the compound that prevented visible growth of bacteria.

Minimum inhibitory concentration (MIC) [µg/mL]	Structure (SMILES)
2 (≈ 1.29 µM)	CCC(C)CCC(=O)N[C@H](CO)C(=O)N[C@H](Cc1ccc(O)cc1)C(=O)N[C@H](Cc1c[nH]c2ccccc12)C(=O)N[C@H](CCCN)C(=O)N[C@@H](CCCN)C(=O)NCC(=O)N[C@H](CCCN)C(=O)N[C@@H](Cc1c[nH]c2ccccc12)C(=O)N[C@@H]1C(=O)N[C@@H]([C@@H](C)CC)C(=O)NCC(=O)N[C@H](CO)C(=O)NCC(=O)O[C@@H]1C (stereo partly drawn) [Compound R2] ({Hexanoyl(4ξ-Me)}-[dS][dY][dW][dOrn][Orn]G[dOrn]WTIG[dS]G; ester 9-C; N-terminus assumed)
2 to 4	CC[C@H](C)[C@@H]1NC(=O)[C@@H](NC(=O)[C@H](Cc2c[nH]c3ccccc23)NC(=O)[C@@H](CCCN)NC(=O)CNC(=O)[C@H](CCCN)NC(=O)[C@@H](CCCN)NC(=O)[C@@H](Cc2c[nH]c3ccccc23)NC(=O)[C@@H](Cc2ccc(O)cc2)NC(=O)[C@@H](CO)NC(=O)CCCCCC(C)C)[C@@H](C)OC(=O)CNC(=O)[C@H](CO)NC(=O)CNC1=O [Compound R3] ({Octanoyl(7-Me)}-[dS][dY][dW][dOrn][Orn]G[dOrn]WTIGSG; ester 9-C; N-terminus assumed)
2 (≈ 1.28 µM)	CCC(C)CCC(=O)N[C@H](CO)C(=O)N[C@H](Cc1ccc(O)cc1)C(=O)N[C@H](Cc1c[nH]c2ccccc12)C(=O)N[C@H](CCCN)C(=O)N[C@@H](CCCN)C(=O)NCC(=O)N[C@H](CCCN)C(=O)N[C@@H](Cc1c[nH]c2ccccc12)C(=O)N[C@@H]1C(=O)N[C@@H]([C@@H](C)CC)C(=O)NCC(=O)N[C@@H](CO)C(=O)N[C@@H](C)C(=O)O[C@@H]1C (stereo partly drawn) [Compound R5] ({Hexanoyl(4ξ-Me)}-[dS][dY][dW][dOrn][Orn]G[dOrn]WTIGSA; ester 9-C; N-terminus assumed)
1 to 2	CCC(C)CCC(=O)N[C@H](CO)C(=O)N[C@H](Cc1ccc(O)cc1)C(=O)N[C@H](Cc1c[nH]c2ccccc12)C(=O)N[C@H](CCCN)C(=O)N[C@@H](CCCN)C(=O)NCC(=O)N[C@H](CCCN)C(=O)N[C@@H](Cc1c[nH]c2ccccc12)C(=O)N[C@@H]1C(=O)N[C@@H]([C@@H](C)CC)C(=O)NCC(=O)N[C@H](CO)C(=O)N[C@H](C)C(=O)O[C@@H]1C (stereo partly drawn) [Compound R8] ({Hexanoyl(4ξ-Me)}-[dS][dY][dW][dOrn][Orn]G[dOrn]WTIG[dS][dA]; ester 9-C; N-terminus assumed)
1 to 2	CC[C@H](C)[C@@H]1NC(=O)[C@@H](NC(=O)[C@H](Cc2c[nH]c3ccccc23)NC(=O)[C@@H](CCCN)NC(=O)CNC(=O)[C@H](CCCN)NC(=O)[C@@H](CCCN)NC(=O)[C@@H](Cc2c[nH]c3ccccc23)NC(=O)[C@@H](Cc2ccc(O)cc2)NC(=O)[C@@H](CO)NC(=O)CCCCCC(C)C)[C@@H](C)OC(=O)[C@H](C)NC(=O)[C@@H](CO)NC(=O)CNC1=O [Compound R10] ({Octanoyl(7-Me)}-[dS][dY][dW][dOrn][Orn]G[dOrn]WTIG[dS]A; ester 9-C; N-terminus assumed)
1 (≈ 0.628 µM)	CC[C@H](C)[C@@H]1NC(=O)[C@@H](NC(=O)[C@H](Cc2c[nH]c3ccccc23)NC(=O)[C@@H](CCCN)NC(=O)CNC(=O)[C@H](CCCN)NC(=O)[C@@H](CCCN)NC(=O)[C@@H](Cc2c[nH]c3ccccc23)NC(=O)[C@@H](Cc2ccc(O)cc2)NC(=O)[C@@H](CO)NC(=O)CCCCCC(C)C)[C@@H](C)OC(=O)[C@@H](C)NC(=O)[C@H](CO)NC(=O)CNC1=O [Compound R11] ({Octanoyl(7-Me)}-[dS][dY][dW][dOrn][Orn]G[dOrn]WTIGS[dA]; ester 9-C; N-terminus assumed)
1 to 2	CC[C@H](C)[C@@H]1NC(=O)[C@@H](NC(=O)[C@H](Cc2c[nH]c3ccccc23)NC(=O)[C@@H](CCCN)NC(=O)CNC(=O)[C@H](CCCN)NC(=O)[C@@H](CCCN)NC(=O)[C@@H](Cc2c[nH]c3ccccc23)NC(=O)[C@@H](Cc2ccc(O)cc2)NC(=O)[C@@H](CO)NC(=O)CCCCCC(C)C)[C@@H](C)OC(=O)[C@@H](C)NC(=O)[C@@H](CO)NC(=O)CNC1=O [Compound R12] ({Octanoyl(7-Me)}-[dS][dY][dW][dOrn][Orn]G[dOrn]WTIG[dS][dA]; ester 9-C; N-terminus assumed)

More lines, now with the values behind:

Structure (SMILES)	Minimum inhibitory concentration (MIC) [µg/mL]
CC[C@H](C)[C@@H]1NC(=O)[C@@H](NC(=O)[C@H](Cc2c[nH]c3ccccc23)NC(=O)[C@@H](CCCN)NC(=O)CNC(=O)[C@H](CCCN)NC(=O)[C@@H](CCCN)NC(=O)[C@@H](Cc2c[nH]c3ccccc23)NC(=O)[C@@H](Cc2ccc(O)cc2)NC(=O)[C@@H](CO)NC(=O)CCCCCC(C)C)[C@@H](C)OC(=O)CNC(=O)[C@@H](CO)NC(=O)CNC1=O [Compound R4] ({Octanoyl(7-Me)}-[dS][dY][dW][dOrn][Orn]G[dOrn]WTIG[dS]G; ester 9-C; N-terminus assumed)	2 to 4
CCC(C)CCC(=O)N[C@H](CO)C(=O)N[C@H](Cc1ccc(O)cc1)C(=O)N[C@H](Cc1c[nH]c2ccccc12)C(=O)N[C@H](CCCN)C(=O)N[C@@H](CCCN)C(=O)NCC(=O)N[C@H](CCCN)C(=O)N[C@@H](Cc1c[nH]c2ccccc12)C(=O)N[C@@H]1C(=O)N[C@@H]([C@@H](C)CC)C(=O)NCC(=O)N[C@H](CO)C(=O)N[C@@H](C)C(=O)O[C@@H]1C (stereo partly drawn) [Compound R6] ({Hexanoyl(4ξ-Me)}-[dS][dY][dW][dOrn][Orn]G[dOrn]WTIG[dS]A; ester 9-C; N-terminus assumed)	1 (≈ 0.639 µM)
CCC(C)CCC(=O)N[C@H](CO)C(=O)N[C@H](Cc1ccc(O)cc1)C(=O)N[C@H](Cc1c[nH]c2ccccc12)C(=O)N[C@H](CCCN)C(=O)N[C@@H](CCCN)C(=O)NCC(=O)N[C@H](CCCN)C(=O)N[C@@H](Cc1c[nH]c2ccccc12)C(=O)N[C@@H]1C(=O)N[C@@H]([C@@H](C)CC)C(=O)NCC(=O)N[C@@H](CO)C(=O)N[C@H](C)C(=O)O[C@@H]1C (stereo partly drawn) [Compound R7] ({Hexanoyl(4ξ-Me)}-[dS][dY][dW][dOrn][Orn]G[dOrn]WTIGS[dA]; ester 9-C; N-terminus assumed)	1 (≈ 0.639 µM)
CC[C@H](C)[C@@H]1NC(=O)[C@@H](NC(=O)[C@H](Cc2c[nH]c3ccccc23)NC(=O)[C@@H](CCCN)NC(=O)CNC(=O)[C@H](CCCN)NC(=O)[C@@H](CCCN)NC(=O)[C@@H](Cc2c[nH]c3ccccc23)NC(=O)[C@@H](Cc2ccc(O)cc2)NC(=O)[C@@H](CO)NC(=O)CCCCCC(C)C)[C@@H](C)OC(=O)[C@H](C)NC(=O)[C@H](CO)NC(=O)CNC1=O [Compound R9] ({Octanoyl(7-Me)}-[dS][dY][dW][dOrn][Orn]G[dOrn]WTIGSA; ester 9-C; N-terminus assumed)	1 to 2
CC[C@H](C)[C@H](NC(=O)[C@H](CN)NC(=O)[C@H](Cc1c[nH]c2ccccc12)NC(=O)[C@@H](CCCN)NC(=O)CNC(=O)[C@H](CCCN)NC(=O)[C@@H](CCCN)NC(=O)[C@@H](Cc1c[nH]c2ccccc12)NC(=O)[C@@H](Cc1ccc(O)cc1)NC(=O)[C@@H](CO)NC(=O)CCCCCC(C)C)C(=O)N[C@@H](CC(N)=O)C(=O)NCC(=O)NCC(N)=O [Dap9-CONH2] ({Octanoyl(7-Me)}-[dS][dY][dW][dOrn][Orn]G[dOrn]W[Dap]INGG-NH2)	4 (≈ 2.49 µM)
